Data: PubChem BioAssay AID330 (DTP/NCI, 2004)
Values joined by “and” are separate entries in the source; they are usually repeats but may differ in a detail not shown here. Equal entries are not always repeated. Inconclusive results and toxic doses are left out. The calls were made as follows: active = survival T/C of 150% or more; inactive = T/C below 125% in these data.

Test system: P388 leukemia ip, CD2F1 mice, survival T/C
Assay: NCI In Vivo Anticancer Drug Screen. Data for tumor model P388 Leukemia (intraperitoneal) in CD2F1 (CDF1) mice
Conditions: endpoint: median survival time, higher = longer survival
Summary of the method: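 Mice carrying the transplanted tumor received test compound or vehicle. Survival was recorded in each group, and the value is the treated-group measurement divided by that of the vehicle-treated control group.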

[1] = dose: 6.25 mg/kg/injection, schedule: Q01DX009 (ip), vehicle: saline with Tween-80
[2] = dose: 12.5 mg/kg/injection, schedule: Q01DX009 (ip), vehicle: saline with Tween-80
[3] = dose: 25.0 mg/kg/injection, schedule: Q01DX009 (ip), vehicle: saline with Tween-80
[4] = dose: 50.0 mg/kg/injection, schedule: Q01DX009 (ip), vehicle: saline with Tween-80
[5] = dose: 100.0 mg/kg/injection, schedule: Q01DX009 (ip), vehicle: saline with Tween-80
[6] = dose: 50.0 mg/kg/injection, schedule: Q01DX009 (ip), vehicle: Klucel (hydroxypropylcellulose) (HPC)
[7] = dose: 100.0 mg/kg/injection, schedule: Q01DX009 (ip), vehicle: Klucel (hydroxypropylcellulose) (HPC)
[8] = dose: 200.0 mg/kg/injection, schedule: Q01DX009 (ip), vehicle: Klucel (hydroxypropylcellulose) (HPC)
[9] = dose: 50.0 mg/kg/injection, schedule: Q01DX009 (ip), vehicle: suspension in saline
[10] = dose: 100.0 mg/kg/injection, schedule: Q01DX009 (ip), vehicle: suspension in saline
[11] = dose: 200.0 mg/kg/injection, schedule: Q01DX009 (ip), vehicle: suspension in saline
[12] = dose: 15.0 mg/kg/injection, schedule: Q01DX005 (ip), vehicle: saline with Tween-80
[13] = dose: 30.0 mg/kg/injection, schedule: Q01DX005 (ip), vehicle: saline with Tween-80
[14] = dose: 60.0 mg/kg/injection, schedule: Q01DX005 (ip), vehicle: Klucel (hydroxypropylcellulose) (HPC)
[15] = dose: 60.0 mg/kg/injection, schedule: Q01DX005 (ip), vehicle: saline with Tween-80
[16] = dose: 120.0 mg/kg/injection, schedule: Q01DX005 (ip), vehicle: saline with Tween-80
[17] = dose: 240.0 mg/kg/injection, schedule: Q01DX005 (ip), vehicle: saline with Tween-80
[18] = dose: 200.0 mg/kg/injection, schedule: Q01DX009 (ip), vehicle: saline with Tween-80
[19] = dose: 50.0 mg/kg/injection, schedule: Q01DX005 (ip), vehicle: Klucel (hydroxypropylcellulose) (HPC)
[20] = dose: 100.0 mg/kg/injection, schedule: Q01DX005 (ip), vehicle: Klucel (hydroxypropylcellulose) (HPC)
[21] = dose: 200.0 mg/kg/injection, schedule: Q01DX005 (ip), vehicle: Klucel (hydroxypropylcellulose) (HPC)
[22] = dose: 400.0 mg/kg/injection, schedule: Q01DX009 (ip), vehicle: Klucel (hydroxypropylcellulose) (HPC)
[23] = dose: 50.0 mg/kg/injection, schedule: Q01DX005 (ip), vehicle: saline with Tween-80
[24] = dose: 100.0 mg/kg/injection, schedule: Q01DX005 (ip), vehicle: saline with Tween-80
[25] = dose: 200.0 mg/kg/injection, schedule: Q01DX005 (ip), vehicle: saline with Tween-80

Measured: T/C

O=C(Nc1cccc(C(F)(F)F)c1)C12CC3CC(CC(C3)C1)C2
inactive: [1] 98 % of control | [2] 100 % of control | [3] 91 % of control | [4] 90 % of control | [5] 88 % of control

Nc1nc(-c2cc3cc(Cl)ccc3o2)cs1
inactive: [6] 101 % of control | [7] 101 % of control | [8] 100 % of control

O=C1CCSC(=S)N1c1cc(Cl)c(Cl)cc1Cl
inactive: [9] 106 % of control | [10] 108 % of control | [11] 109 % of control

CC(=O)OCc1c(-c2ccccc2)c(=O)c1=O
inactive: [12] 100 % of control | [13] 103 % of control | [14] 108 % of control | [15] 106 % of control

COC(=O)N1c2ccccc2[C@@H](O)[C@@H]1OC
inactive: [15] 119 % of control | [16] 116 % of control | [17] 100 % of control

CC(=O)Nc1ccc(C(=O)O)cc1[N+](=O)[O-]
inactive: [5] 99 % of control | [18] 99 % of control | dose: 400.0 mg/kg/injection, schedule: Q01DX009 (ip), vehicle: saline with Tween-80 97 % of control

COc1ccc2c(c1)S(=O)(=O)C(c1ccccc1)=CC2=O
inactive: [19] 114 % of control | [20] 115 % of control | [21] 123 % of control

O=C(Nc1cccc2nsnc12)c1ccc(C(=O)Nc2cccc3nsnc23)cc1
inactive: dose: 0.46 mg/kg/injection, schedule: Q01DX005 (ip), vehicle: Klucel (hydroxypropylcellulose) (HPC) 97 % of control | dose: 0.93 mg/kg/injection, schedule: Q01DX005 (ip), vehicle: Klucel (hydroxypropylcellulose) (HPC) 96 % of control | dose: 1.87 mg/kg/injection, schedule: Q01DX005 (ip), vehicle: Klucel (hydroxypropylcellulose) (HPC) 98 % of control | dose: 30.0 mg/kg/injection, schedule: Q01DX005 (ip), vehicle: Klucel (hydroxypropylcellulose) (HPC) 86 % of control | dose: 240.0 mg/kg/injection, schedule: Q01DX005 (ip), vehicle: Klucel (hydroxypropylcellulose) (HPC) 98 % of control

CC1=NCCN=C(C)C1N=Nc1ccccc1
inactive: dose: 100.0 mg/kg/injection, schedule: Q04DX003 (ip), vehicle: saline with Tween-80 90 % of control | dose: 200.0 mg/kg/injection, schedule: Q04DX003 (ip), vehicle: saline with Tween-80 90 % of control

CCCCNc1ccc(Nc2ccccc2)cc1
inactive: [1] 95 % of control | [2] 108 % of control | [3] 115 % of control | [4] 121 % of control

NC(=S)N/N=C/c1cc([N+](=O)[O-])ccc1Cl
inactive: [9] 94 % of control | [10] 92 % of control | [11] 94 % of control

COC(=O)CCC(Br)(Br)Br
inactive: [6] 94 % of control | [7] 99 % of control

C/C(=C\Cl)CO
inactive: [3] 111 % of control | [4] 111 % of control | [5] 94 % of control

COc1ccccc1CN1CC(C)N(N=Cc2c3c(O)c4c(O)c(C)c5c(c4c2O)C(=O)C(C)(O/C=C/C(OC)C(C)C(OC(C)=O)C(C)C(O)C(C)C(O)C(C)/C=C/C=C(\C)C(=O)N3)O5)C(C)C1 (stereo not given)
inactive: [4] 102 % of control | [5] 107 % of control | [18] 117 % of control

O=c1[nH]c2c([N+](=O)[O-])cc(Cl)cc2nc1/C=C(\O)c1ccccc1
inactive: [14] 105 % of control | dose: 120.0 mg/kg/injection, schedule: Q01DX005 (ip), vehicle: Klucel (hydroxypropylcellulose) (HPC) 106 % of control

CCN(CC)CCNCc1cc(Cl)c2cccnc2c1O
inactive: dose: 50.0 mg/kg/injection, schedule: Q01DX009 (ip), vehicle: saline 93 % of control | dose: 100.0 mg/kg/injection, schedule: Q01DX009 (ip), vehicle: saline 106 % of control

CCCOCCOCCOC(C)Oc1ccc(OC)cc1 (stereo not given)
inactive: [15] 105 % of control | [16] 104 % of control | [17] 104 % of control

CC(=O)Nc1ccc(N)cc1C
inactive: dose: 100.0 mg/kg/injection, schedule: Q04DX002 (ip), vehicle: saline 96 % of control | dose: 200.0 mg/kg/injection, schedule: Q04DX002 (ip), vehicle: saline 97 % of control | dose: 400.0 mg/kg/injection, schedule: Q04DX002 (ip), vehicle: saline 97 % of control

CCN(CC)c1nc(/C=C\c2ccc(N(C)C)cc2)c2nccnc2n1
inactive: [6] 95 % of control | [7] 90 % of control | [8] 94 % of control

COc1cc2ccc(CC(=O)NCCc3ccc4c(c3)OCO4)cc2cc1OC
inactive: [7] 100 % of control | [8] 100 % of control | [22] 90 % of control

CCCCCCCC/C=C/CC1CCCC(C)N1 (stereo not given) (tested in a mixture with another compound)
inactive: dose: 7.5 mg/kg/injection, schedule: Q01DX005 (ip), vehicle: saline with Tween-80 100 % of control | [12] 100 % of control | [13] 98 % of control and 102 % of control

CCN(CC)CC.[CH-]1CCCCC1.[CH-]1CCCCC1.[CH-]1CCCCC1.[Cl-].[N-]=C=NC(=O)NC1CCCCC1.[Sn+4]
inactive: dose: 1.5 mg/kg/injection, schedule: Q01DX005 (ip), vehicle: Klucel (hydroxypropylcellulose) (HPC) 92 % of control | dose: 3.0 mg/kg/injection, schedule: Q01DX005 (ip), vehicle: Klucel (hydroxypropylcellulose) (HPC) 92 % of control | dose: 6.0 mg/kg/injection, schedule: Q01DX005 (ip), vehicle: Klucel (hydroxypropylcellulose) (HPC) 102 % of control and 92 % of control

FC(F)(F)c1ccc(-c2ccc(OCCN3CCCC3)cc2)cc1
inactive: [2] 86 % of control | [3] 86 % of control | [4] 86 % of control | dose: 50.0 mg/kg/injection, schedule: Q04DX003 (ip), vehicle: saline sonified 87 % of control

O=S(=O)(NN=C(c1ccccc1)c1ccccc1)c1ccccc1
inactive: dose: 25.0 mg/kg/injection, schedule: Q01DX009 (ip), vehicle: Klucel (hydroxypropylcellulose) (HPC) 99 % of control | [6] 93 % of control | [7] 101 % of control | [8] 106 % of control | [22] 90 % of control

NNC(=O)c1c(O)ccc2ccccc12
inactive: [23] 95 % of control | [24] 93 % of control | [25] 100 % of control

COc1cc2c(c3c1c(=O)c1ccc(F)cc1n3C)C=CC(C)(C)O2
inactive: [19] 98 % of control | [20] 108 % of control | [21] 109 % of control

CCCCCCCC/C=C\CCCCCCCC(=O)OCCN(CCOC(=O)CCCCCCC/C=C/CCCCCCCC)C(=O)COC(=O)CCCCCCC/C=C\CCCCCCCC
inactive: [4] 104 % of control | [5] 104 % of control | [18] 104 % of control

COc1cccc(C(Cc2ccccc2)NCc2ccccc2)c1O (stereo not given)
inactive: [23] 105 % of control | [24] 103 % of control | [25] 101 % of control

O=C1c2ccccc2C(O)(C#Cc2ccccc2)c2cc(Cl)ccc21 (stereo not given)
inactive: [4] 106 % of control | [5] 102 % of control | [18] 90 % of control

O=Cc1ccc(N2OC3C(=O)N(c4ccccc4)C(=O)C3C2c2ccc([N+](=O)[O-])cc2)cc1 (stereo not given)
inactive: [19] 96 % of control | [20] 92 % of control | [21] 97 % of control

O=C(O)c1ccccc1-c1c2cc(Br)c(=O)cc-2oc2[c]([Hg])c(O)c(Br)cc12
inactive: dose: 6.25 mg/kg/injection, schedule: Q01DX005 (ip), vehicle: saline 106 % of control | dose: 12.5 mg/kg/injection, schedule: Q01DX005 (ip), vehicle: saline 109 % of control | dose: 25.0 mg/kg/injection, schedule: Q01DX005 (ip), vehicle: saline 107 % of control

Cc1onc(-c2c(F)cccc2Cl)c1-c1ncc(-c2ccc(Cl)cc2)o1
inactive: [15] 98 % of control | [16] 94 % of control | [17] 99 % of control

CC1C(c2ccccc2)OC(N2CCOCC2)C(C)(C)CN1C (stereo not given)
inactive: [23] 108 % of control and 93 % of control | [24] 98 % of control and 101 % of control and 116 % of control | [25] 101 % of control and 119 % of control and 121 % of control | dose: 400.0 mg/kg/injection, schedule: Q01DX005 (ip), vehicle: saline with Tween-80 101 % of control
